Experimental data published in US4088793A, “Control of nitrosamine formation in nitrite cured meat” (Canada Packers Limited, priority 1977, dated 1978).

Key:
[1] = Volatile nitrosamine content of cook-out fat from fried nitrite-cured bacon slices streaked with test compound; conditions: for blocking of formation of nitrosamines: 20 ppm level of incorporation in the meat; for inhibition of nitrosamine formation: in comparison with the untreated controls
Excerpt: The mechanism by which the 1,2-dihydro- and 1,2,3,4-tetrahydro-6-hydroxyquinoline nitroxides interfere with the formation of nitrosamines at high temperature is not completely understood. However, the invention is not limited by any particular theory of operation. It has been shown by a series of tests with representative compounds that up to 100% of the nitrosamines which normally appear in fried bacon have been eliminated.
The nitroxide compounds from ethoxyquin and from dihydroethoxyquin, prepared as in Examples 1 and 2, respectively, were dissolved in separate portions of winterized soya oil to provide a 4.5% concentration and the resulting solutions were streaked on bacon slices, which had undergone a conventional nitrite cure and plant processing, in quantities providing levels of 1,2-dihydro-2,2,4-trimethyl-6-hydroxy-quinoline nitroxide of from 1 ppm to 100 ppm in the meat for one series of tests and levels of 1 - 20 ppm of the corresponding 1,2,3,4-tetrahydroquinoline nitroxide compound in the meat for another series of tests. Control slices of bacon were streaked with the oil alone. The bacon slices were fried under standardized conditions and the cook-out fat was analyzed for volatile nitrosamine content.

[2] = tested on: experimental animals; conditions: tests on experimental animals; cited from earlier work

## 1,2,3,4-tetrahydro-2,2,4-trimethyl-6-hydroxy-quinoline nitroxide [Nitroxide from Dihydro Ethoxyquin]
[1]
  blocking of formation of nitrosamines: essentially blocked formation of nitrosamines
  inhibition of nitrosamine formation: excellent inhibition of nitrosamine formation
[1]; Example 13: 20 ppm in meat, control product 35 ppb
  Nitrosamines In Cook-Out Fat, Test Product: 3 ppb
[1]; Example 14: 10 ppm in meat, control product 35 ppb
  Nitrosamines In Cook-Out Fat, Test Product: 13 ppb
[1]; Example 15: 1 ppm in meat, control product 35 ppb
  Nitrosamines In Cook-Out Fat, Test Product: 20 ppb
[1]; Example 16: 20 ppm in meat, control product 36 ppb, figures below 3 ppb not reliable
  Nitrosamines In Cook-Out Fat, Test Product: 2 ppb
[1]; Example 17: 10 ppm in meat, control product 36 ppb
  Nitrosamines In Cook-Out Fat, Test Product: 6 ppb
[1]; Example 18: 1 ppm in meat, control product 36 ppb
  Nitrosamines In Cook-Out Fat, Test Product: 22 ppb

## 1,2-dihydro-2,2,4-trimethyl-6-hydroxy-quinoline nitroxide [Nitroxide from Ethoxyquin]
[1]
  blocking of formation of nitrosamines: essentially blocked formation of nitrosamines
  inhibition of nitrosamine formation: excellent inhibition of nitrosamine formation
[1]; Example 3: 100 ppm in meat, control product 18 ppb, figures below 3 ppb not reliable
  Nitrosamines In Cook-Out Fat, Test Product: 0 ppb
[1]; Example 4: 50 ppm in meat, control product 19 ppb, figures below 3 ppb not reliable
  Nitrosamines In Cook-Out Fat, Test Product: 0 ppb
[1]; Example 5: 10 ppm in meat, control product 19 ppb
  Nitrosamines In Cook-Out Fat, Test Product: 3 ppb
[1]; Example 6: 1 ppm in meat, control product 19 ppb
  Nitrosamines In Cook-Out Fat, Test Product: 13 ppb
[1]; Example 7: 20 ppm in meat, control product 8 ppb, figures below 3 ppb not reliable
  Nitrosamines In Cook-Out Fat, Test Product: 0 ppb
[1]; Example 8: 10 ppm in meat, control product 8 ppb, figures below 3 ppb not reliable
  Nitrosamines In Cook-Out Fat, Test Product: 0 ppb
[1]; Example 9: 1 ppm in meat, control product 8 ppb, figures below 3 ppb not reliable
  Nitrosamines In Cook-Out Fat, Test Product: 2 ppb
[1]; Example 10: 20 ppm in meat, control product 38 ppb, figures below 3 ppb not reliable
  Nitrosamines In Cook-Out Fat, Test Product: 2 ppb
[1]; Example 11: 10 ppm in meat, control product 38 ppb
  Nitrosamines In Cook-Out Fat, Test Product: 5 ppb
[1]; Example 12: 1 ppm in meat, control product 38 ppb
  Nitrosamines In Cook-Out Fat, Test Product: 16 ppb

## O=NN1CCCC1 [N-nitrosopyrrolidine]
[2]
  carcinogenicity: carcinogenic

## CN(C)N=O [dimethylnitrosamine]
[2]
  carcinogenicity: carcinogenic
